Test results reported in patent US11173151B2, “Substituted triazole derivatives and uses thereof” (BAYER AKTIENGESELLSCHAFT, priority 2017, dated 2021).

What was measured:
human V1a receptor = target: T1, human V1a receptor (Homo sapiens, UniProt P37288); experiment: Cellular in vitro assay for determining vasopressin receptor activity, V1a receptor cell line (CHO, aequorin luminescence); type: cell-based; details: for IC50: CHO cell line transfected with human V1a receptor, [Arg]-vasopressin at EC50 concentration, read-out: IC50 hV1a; for ratio IC50 hV2/hV1a: selectivity ratio IC50 hV2 / IC50 hV1a
T1 construct: expressed in transfected cells; host or cells: CHO K1 (ATCC), also stably transfected with a modified aequorin
T1 sequence (P37288 whole entry): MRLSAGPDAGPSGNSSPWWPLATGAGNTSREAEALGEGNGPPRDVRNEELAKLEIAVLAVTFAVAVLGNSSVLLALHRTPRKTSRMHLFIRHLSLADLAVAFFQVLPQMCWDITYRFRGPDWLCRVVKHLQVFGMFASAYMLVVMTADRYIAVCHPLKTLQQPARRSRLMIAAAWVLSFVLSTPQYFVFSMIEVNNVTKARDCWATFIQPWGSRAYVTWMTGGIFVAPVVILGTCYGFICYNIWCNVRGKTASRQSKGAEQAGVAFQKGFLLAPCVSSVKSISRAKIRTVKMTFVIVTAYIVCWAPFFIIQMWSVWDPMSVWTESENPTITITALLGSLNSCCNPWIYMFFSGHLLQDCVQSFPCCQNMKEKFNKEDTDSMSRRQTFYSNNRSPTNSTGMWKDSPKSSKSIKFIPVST
How it was run: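 Cells were plated the day before in medium containing 5 μg/ml coelenterazine and kept at 37° C. Compounds at various concentrations were then added for 10 minutes. Next, [Arg]-vasopressin at EC50 was applied and light output recorded at once, yielding IC50.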

human V2 receptor = target: T2, human V2 receptor (Homo sapiens, UniProt P30518); experiment: Cellular in vitro assay for determining vasopressin receptor activity, V2 receptor cell line (CHO, CRE-luciferase); type: cell-based; details: CHO cell line transfected with human V2 receptor; [Arg8]-vasopressin at EC50 concentration; read-out: IC50 hV2
T2 construct: expressed in transfected cells; host or cells: CHO K1 (ATCC) expressing firefly luciferase under a CRE-responsive promoter
T2 sequence (P30518 whole entry): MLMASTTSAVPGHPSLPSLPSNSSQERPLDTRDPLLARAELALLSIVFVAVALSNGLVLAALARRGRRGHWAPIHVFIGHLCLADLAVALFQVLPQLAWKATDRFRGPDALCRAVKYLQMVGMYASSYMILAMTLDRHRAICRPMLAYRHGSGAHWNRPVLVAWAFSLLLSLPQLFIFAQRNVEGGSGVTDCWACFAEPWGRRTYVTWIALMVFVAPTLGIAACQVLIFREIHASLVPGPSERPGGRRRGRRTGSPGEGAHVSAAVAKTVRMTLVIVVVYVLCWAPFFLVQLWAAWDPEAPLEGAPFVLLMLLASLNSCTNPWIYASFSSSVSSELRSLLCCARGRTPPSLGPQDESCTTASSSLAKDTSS

Compound | IC50 (human V1a receptor) [µM] | ratio IC50 hV2/hV1a (human V1a receptor) | IC50 (human V2 receptor) [µM]
O=C(N[C@H]1C[C@@H]1F)c1cccc(C(F)(F)F)c1-n1cnc(Cn2nc(-c3ccc(Cl)cc3)n(C[C@H](O)C(F)(F)F)c2=O)n1 (racemic) [Example 422, 2-[3-({3-(4-Chlorophenyl)-5-oxo-4-[(2S)-3,3,3-trifluoro-2-hydroxypropyl]-4,5-dihydro-1H-1,2,4-triazol-1-yl}methyl)-1H-1,2,4-triazol-1-yl]-N-[2-fluorocyclopropyl]-3-(trifluoromethyl)benzamide] | 0.03 | 93.3 | 2.8
O=C(N[C@H]1C[C@H]1F)c1ncccc1-n1cnc(Cn2nc(-c3ccc(Cl)cc3)n(C[C@H](O)C(F)(F)F)c2=O)n1 (racemic) [Example 435, 3-[3-({3-(4-Chlorophenyl)-5-oxo-4-[(2S)-3,3,3-trifluoro-2-hydroxypropyl]-4,5-dihydro-1H-1,2,4-triazol-1-yl}methyl)-1H-1,2,4-triazol-1-yl]-N-[2-fluorocyclopropyl]pyridine-2-carboxamide] | 0.0245 | 43.5 | 1.06
O=C(N[C@H]1C[C@H]1F)c1ncccc1-n1cnc(Cn2nc(-c3ccc(Cl)cc3)n(C[C@H](O)C(F)(F)F)c2=O)n1 (racemic) [Example 456, 3-[3-({3-(4-Chlorophenyl)-5-oxo-4-[(2S)-3,3,3-trifluoro-2-hydroxypropyl]-4,5-dihydro-1H-1,2,4-triazol-1-yl}methyl)-1H-1,2,4-triazol-1-yl]-N-[2-fluorocyclopropyl]pyridine-2-carboxamide] | 0.012 | 65.4 | 0.785
O=C(N[C@H]1C[C@H]1F)c1cccnc1-n1cnc(Cn2nc(-c3ccc(Cl)cc3)n(C[C@H](O)C(F)(F)F)c2=O)n1 (racemic) [Example 504, 2-[3-({3-(4-Chlorophenyl)-5-oxo-4-[(2S)-3,3,3-trifluoro-2-hydroxypropyl]-4,5-dihydro-1H-1,2,4-triazol-1-yl}methyl)-1H-1,2,4-triazol-1-yl]-N-[2-fluorocyclopropyl]pyridine-3-carboxamide] | 0.0031 | 50.0 | 0.155
O=C1CN(c2nc(Cn3nc(-c4ccc(Cl)cc4)n(C[C@H](O)C(F)(F)F)c3=O)nn2-c2cccnc2C(=O)N[C@H]2C[C@@H]2F)CCN1 (racemic) [Example 507, 3-[3-({3-(4-Chlorophenyl)-5-oxo-4-[(2S)-3,3,3-trifluoro-2-hydroxypropyl]-4,5-dihydro-1H-1,2,4-triazol-1-yl}methyl)-5-(3-oxopiperazin-1-yl)-1H-1,2,4-triazol-1-yl]-N-[2-fluorocyclopropyl]pyridine-2-carboxamide] | 4.5 | 7.1 | 32
O=C1CN(c2nc(Cn3nc(-c4ccc(Cl)cc4)n(C[C@H](O)C(F)(F)F)c3=O)nn2-c2cccnc2C(=O)N[C@@H]2C[C@@H]2F)CCN1 (racemic) [Example 508, 3-[3-({3-(4-Chlorophenyl)-5-oxo-4-[(2S)-3,3,3-trifluoro-2-hydroxypropyl]-4,5-dihydro-1H-1,2,4-triazol-1-yl}methyl)-5-(3-oxopiperazin-1-yl)-1H-1,2,4-triazol-1-yl]-N-[2-fluorocyclopropyl]pyridine-2-carboxamide] | 5.15 | 4.6 | 23.5
O=C1CN(C(=O)c2nc(Cn3nc(-c4ccc(Cl)cc4)n(C[C@H](O)C(F)(F)F)c3=O)nn2-c2cnccc2C(=O)N[C@H]2C[C@H]2F)CCN1 (racemic) [Example 517, 3-{3-({3-(4-Chlorophenyl)-5-oxo-4-[(2S)-3,3,3-trifluoro-2-hydroxypropyl]-4,5-dihydro-1H-1,2,4-triazol-1-yl}methyl)-5-[(3-oxopiperazin-1-yl)carbonyl]-1H-1,2,4-triazol-1-yl}-N-[2-fluorocyclopropyl]pyridine-4-carboxamide] | 0.49 | 3.8 | 1.84
